Laboratory results as given in patent US9464084B2, “P2X7 modulators” (Janssen Pharmaceutica NV, priority 2013, dated 2016).
pIC50, pKi: −log10 of the molar value.

Key:
P2X7 [1] = target: T1, P2X7 (Homo sapiens (Human), UniProt Q99572); assay: P2X7 antagonism in human PBMCs (LPS + Bz-ATP induced IL-1β release, ELISA); format: cell-based; conditions: LPS 30 ng/ml, Bz-ATP 0.5 mM; for PBMC 1 μM (% control): compound 1 μM; for PBMC 10 μM (% control): compound 10 μM;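 as to all read-outs here: PBMCs from donor human blood, with a further 1.5 h incubation of the cells in the assay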
P2X7 [2] = target: T1, P2X7; assay: Radioligand binding, tritiated A-804598, human P2X7-1321N1 cell membranes; conditions: 1 hour at 4° C.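 Also: ki obtained from the binding IC50 after correction for tracer concentration and tracer affinity.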
Protocol: On the day of the experiment, cell membrane preparations were made according to standard published methods. […] The assay was terminated by filtration (GF/B filters pre-soaked with 0.3% PEI) and washed with washing buffer (Tris-HCl 50 mM). The IC50 generated in the binding assay was corrected for tracer concentration and affinity of the tracer to derive at the affinity (Ki) of the test compounds.

P2X7 [3] = target: T1, P2X7; assay: Ca2+ flux (FLIPR) in 1321N1 cells expressing recombinant human P2X7 channel; format: cell-based; conditions: 250 μM BzATP;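 also: Calcium-4 dye-loaded cells exposed to compound for 30 min before agonist addition, fluorescence change read 180 s after agonist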
rat P2X7 = rat P2X7 (Rattus norvegicus (Rat), UniProt Q64663); assay: Ca2+ flux (FLIPR) in 1321N1 cells expressing recombinant rat P2X7 channel; format: cell-based; conditions: 250 μM BzATP;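 also: Calcium-4 dye fluorescence change read 180 s after agonist addition, following 30 min cell preincubation with test compound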
Sequence of rat P2X7 (Q64663 whole entry): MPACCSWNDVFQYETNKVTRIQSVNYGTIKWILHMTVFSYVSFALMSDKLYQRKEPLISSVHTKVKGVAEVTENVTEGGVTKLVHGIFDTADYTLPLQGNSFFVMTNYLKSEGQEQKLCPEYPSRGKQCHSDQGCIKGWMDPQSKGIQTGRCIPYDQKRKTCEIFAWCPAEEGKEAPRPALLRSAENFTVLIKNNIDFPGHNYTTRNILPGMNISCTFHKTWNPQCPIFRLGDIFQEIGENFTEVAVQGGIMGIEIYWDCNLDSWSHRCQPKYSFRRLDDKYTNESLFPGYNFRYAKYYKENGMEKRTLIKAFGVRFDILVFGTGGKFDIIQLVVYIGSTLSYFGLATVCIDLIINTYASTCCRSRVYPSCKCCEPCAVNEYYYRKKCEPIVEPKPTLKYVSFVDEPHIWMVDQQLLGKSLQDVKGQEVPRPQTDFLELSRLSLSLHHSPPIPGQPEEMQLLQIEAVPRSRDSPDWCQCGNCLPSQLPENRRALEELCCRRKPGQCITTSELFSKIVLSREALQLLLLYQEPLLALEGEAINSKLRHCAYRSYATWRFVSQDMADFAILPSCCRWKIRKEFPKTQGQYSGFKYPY

T1 sequence (Q99572 whole entry): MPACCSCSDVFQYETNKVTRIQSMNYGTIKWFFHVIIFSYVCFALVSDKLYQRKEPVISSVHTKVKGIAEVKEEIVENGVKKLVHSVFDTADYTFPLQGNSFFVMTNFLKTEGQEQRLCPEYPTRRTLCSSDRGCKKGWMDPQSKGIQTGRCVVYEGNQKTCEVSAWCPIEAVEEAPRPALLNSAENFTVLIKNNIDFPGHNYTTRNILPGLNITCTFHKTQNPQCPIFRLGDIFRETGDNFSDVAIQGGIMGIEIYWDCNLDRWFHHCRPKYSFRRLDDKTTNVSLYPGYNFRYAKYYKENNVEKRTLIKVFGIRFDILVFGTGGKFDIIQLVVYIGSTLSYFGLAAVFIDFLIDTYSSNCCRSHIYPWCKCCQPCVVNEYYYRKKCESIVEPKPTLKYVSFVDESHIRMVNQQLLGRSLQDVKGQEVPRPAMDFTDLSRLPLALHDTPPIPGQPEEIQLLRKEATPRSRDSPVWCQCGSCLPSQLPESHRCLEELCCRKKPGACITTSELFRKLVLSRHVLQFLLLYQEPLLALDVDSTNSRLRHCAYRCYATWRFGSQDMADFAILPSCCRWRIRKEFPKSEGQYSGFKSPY

PBMC 1 μM (% control) (P2X7 [1])	pKi (P2X7 [2])	pIC50 (P2X7 [3])	pIC50 (rat P2X7)	PBMC 10 μM (% control) (P2X7 [1])	Structure (SMILES)
–	7.45	7.57	5.16	1.4	COc1cccnc1-n1nnc2c1CCN(C(=O)c1cccc(C(F)(F)F)c1Cl)C2C (stereo not drawn) [Example 260, (2-Chloro-3-(trifluoromethyl)phenyl)(1-(3-methoxypyridin-2-yl)-4-methyl-6,7-dihydro-1H-[1,2,3]triazolo[4,5-c]pyridin-5(4H)-yl)methanone]
–	6.43	6.54	5.67	−0.5	Cc1ccc(-n2nnc3c2CCN(C(=O)c2cccc(Cl)c2Cl)C3C)nc1 (stereo not drawn) [Example 336, (2,3-dichlorophenyl)(4-methyl-1-(5-methylpyridin-2-yl)-6,7-dihydro-1H-[1,2,3]triazolo[4,5-c]pyridin-5(4H)-yl)methanone]
–	7.40	7.95	6.29	−8.9	C[C@H]1c2nnn(-c3cccc(F)n3)c2CCN1C(=O)c1cccc(C(F)(F)F)c1Cl (single isomer, unassigned) [Example 147, (S*)-(2-Chloro-3-(trifluoromethyl)phenyl)(1-(6-fluoropyridin-2-yl)-4-methyl-6,7-dihydro-1H-[1,2,3]triazolo[4,5-c]pyridin-5(4H)-yl)methanone]
–	7.55	7.73	7.65	−0.8	Cc1ccnc(-n2nnc3c2CCN(C(=O)c2cccc(C(F)(F)F)c2Cl)C3C)n1 (stereo not drawn) [Example 252, (2-Chloro-3-(trifluoromethyl)phenyl)(4-methyl-1-(4-methylpyrimidin-2-yl)-6,7-dihydro-1H-[1,2,3]triazolo[4,5-c]pyridin-5(4H)-yl)methanone]
–	7.61	7.33	6.17	−8.3	CC1c2nnn(-c3ncccn3)c2CCN1C(=O)c1ccc(Cl)cc1F (stereo not drawn) [Example 275, (4-chloro-2-fluorophenyl)(4-methyl-1-(pyrimidin-2-yl)-6,7-dihydro-1H-[1,2,3]triazolo[4,5-c]pyridin-5(4H)-yl)methanone]
–	7.20	6.25	5.91	3.4	O=C(c1ccc(Cl)cc1F)N1CCc2c(nnn2-c2ncccn2)C1 [Example 280, (4-chloro-2-fluorophenyl)(1-(pyrimidin-2-yl)-6,7-dihydro-1H-[1,2,3]triazolo[4,5-c]pyridin-5(4H)-yl)methanone]
–	7.00	6.21	5.52	−7.6	O=C(c1ccc(Cl)cc1F)N1CCc2c(nnn2-c2cnccn2)C1 [Example 272, (4-chloro-2-fluorophenyl)(1-(pyrazin-2-yl)-6,7-dihydro-1H-[1,2,3]triazolo[4,5-c]pyridin-5(4H)-yl)methanone]
–	7.38	7.13	5.73	−4.8	CC1c2nnn(-c3cnccn3)c2CCN1C(=O)c1ccc(Cl)cc1F (stereo not drawn) [Example 274, (4-chloro-2-fluorophenyl)(4-methyl-1-(pyrazin-2-yl)-6,7-dihydro-1H-[1,2,3]triazolo[4,5-c]pyridin-5(4H)-yl)methanone]
–	7.60	8.96	9.00	11.8	C[C@H]1Cc2c(nnn2-c2ncccn2)CN1C(=O)c1cccc(C(F)(F)F)c1Cl (single isomer, unassigned) [Example 222, (6S*)-5-{[2-Chloro-3-(trifluoromethyl)phenyl]carbonyl}-6-methyl-1-pyrimidin-2-yl-4,5,6,7-tetrahydro-1H-[1,2,3]triazolo[4,5-c]pyridine]
–	8.23	8.48	7.95	−3.7	C[C@@H]1c2nnn(-c3ncccn3)c2CCN1C(=O)c1cccc(C(F)(F)F)c1F (single isomer, unassigned) [Example 271, (R*)-(2-fluoro-3-(trifluoromethyl)phenyl)(4-methyl-1-(pyrimidin-2-yl)-6,7-dihydro-1H-[1,2,3]triazolo[4,5-c]pyridin-5(4H)-yl)methanone]

Second part, the molecule before the results:

Structure (SMILES)	PBMC 1 μM (% control) (P2X7 [1])	pKi (P2X7 [2])	pIC50 (P2X7 [3])	pIC50 (rat P2X7)	PBMC 10 μM (% control) (P2X7 [1])
O=C(c1cccc(C(F)(F)F)c1F)N1CCc2c(nnn2-c2ccccn2)C1 [Example 123, (2-Fluoro-3-(trifluoromethyl)phenyl)(1-(pyridin-2-yl)-6,7-dihydro-1H-[1,2,3]triazolo[4,5-c]pyridin-5(4H)-yl)methanone]	22.0	7.20	7.30	6.00	–
O=C(c1cccc(C(F)(F)F)c1Cl)N1CCc2c(-c3ncccn3)n[nH]c2C1 [Example 98, 6-{[2-Chloro-3-(trifluoromethyl)phenyl]carbonyl}-3-pyrimidin-2-yl-4,5,6,7-tetrahydro-2H-pyrazolo[3,4-c]pyridine]	–	7.85	8.18	6.26	32.5
O=C(c1cccc(C(F)(F)F)c1Cl)N1C=Cc2c(ncn2-c2cnccn2)C1 [Example 54, 5-{[2-Chloro-3-(trifluoromethyl)phenyl]carbonyl}-1-pyrazin-2-yl-4,5-dihydro-1H-imidazo[4,5-c]pyridine]	8.6	7.36	6.70	5.39	–
O=C(c1cccc(C(F)(F)F)c1Cl)N1CCc2c(nnn2-c2ccccc2)C1 [Example 61, 5-{[2-Chloro-3-(trifluoromethyl)phenyl]carbonyl}-1-phenyl-4,5,6,7-tetrahydro-1H-[1,2,3]triazolo[4,5-c]pyridine]	−0.1	7.41	8.33	5.85	–
CC1c2nnn(-c3ccc(F)cc3)c2CCN1C(=O)c1cccc(C(F)(F)F)c1Cl (stereo not drawn) [Example 83, 5-{[2-Chloro-3-(trifluoromethyl)phenyl]carbonyl}-1-(4-fluorophenyl)-4-methyl-4,5,6,7-tetrahydro-1H-[1,2,3]triazolo[4,5-c]pyridine]	–	6.80	7.77	6.40	4.5
O=C(c1cccc(Cl)c1Cl)N1CCc2c(nc(C(F)(F)F)n2-c2ccccc2)C1 [Example 58, 5-[(2,3-Dichlorophenyl)carbonyl]-1-phenyl-2-(trifluoromethyl)-4,5,6,7-tetrahydro-1H-imidazo[4,5-c]pyridine]	–	6.90	7.97	6.12	−2.0
O=C(c1cccc(C(F)(F)F)c1Cl)N1CCc2[nH]nnc2C1c1ccccc1 (stereo not drawn) [Example 78, 5-{[2-Chloro-3-(trifluoromethyl)phenyl]carbonyl}-4-phenyl-4,5,6,7-tetrahydro-1H-[1,2,3]triazolo[4,5-c]pyridine]	57.7	7.00	7.20	6.30	–
CCC1c2ncn(-c3cnccn3)c2C=CN1C(=O)c1cccc(C(F)(F)F)c1Cl (stereo not drawn) [Example 55, 5-{[2-Chloro-3-(trifluoromethyl)phenyl]carbonyl}-4-ethyl-1-pyrazin-2-yl-4,5-dihydro-1H-imidazo[4,5-c]pyridine]	11.3	6.90	7.78	6.59	–
CN(C)CC1c2ncn(-c3ccccn3)c2CCN1C(=O)c1cccc(C(F)(F)F)c1Cl (stereo not drawn) [Example 31, 1-(5-{[2-Chloro-3-(trifluoromethyl)phenyl]carbonyl}-1-pyridin-2-yl-4,5,6,7-tetrahydro-1H-imidazo[4,5-c]pyridin-4-yl)-N,N-dimethylmethanamine]	50.8	6.50	6.81	6.97	–
CCOC(=O)C1c2ncn(-c3ccccc3)c2CCN1C(=O)c1cccc(C(F)(F)F)c1Cl (stereo not drawn) [Example 26, Ethyl 5-(2-chloro-3-(trifluoromethyl)benzoyl)-1-phenyl-4,5,6,7-tetrahydro-1H-imidazo[4,5-c]pyridine-4-carboxylate]	14.0	7.07	8.01	7.15	–
O=C(c1cccc(C(F)(F)F)c1Cl)N1CCc2c(-c3ccc(F)cn3)n[nH]c2C1 [Example 94, 6-{[2-Chloro-3-(trifluoromethyl)phenyl]carbonyl}-3-(5-fluoropyridin-2-yl)-4,5,6,7-tetrahydro-2H-pyrazolo[3,4-c]pyridine]	–	7.50	7.91	6.91	10.8
O=C(c1cccc(C(F)(F)F)c1Cl)N1C=Cc2c(nnn2-c2cnccn2)C1 [Example 89, 5-{[2-Chloro-3-(trifluoromethyl)phenyl]carbonyl}-1-pyrazin-2-yl-4,5-dihydro-1H-[1,2,3]triazolo[4,5-c]pyridine]	−1.5	7.80	8.26	6.04	–
O=C(c1ccnc(Cl)c1Cl)N1CCc2c(-c3ccccc3)n[nH]c2C1 [Example 104, 6-[(2,3-Dichloropyridin-4-yl)carbonyl]-3-phenyl-4,5,6,7-tetrahydro-1H-pyrazolo[3,4-c]pyridine]	8.9	7.30	6.69	5.79	–
Cn1nc2c(c1-c1cncnc1)CCN(C(=O)c1cccc(C(F)(F)F)c1Cl)C2 [Example 113, 6-{[2-Chloro-3-(trifluoromethyl)phenyl]carbonyl}-2-methyl-3-pyrimidin-5-yl-4,5,6,7-tetrahydro-2H-pyrazolo[3,4-c]pyridine]	–	6.40	6.07	< 5.00	42.6
